PubChem BioAssay (NCI)
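Where inhibition never reached the appropriate level, the endpoint shown equals the highest concentration tested. Otherwise, values were interpolated linearly from a five-concentration, 48-hour dose response in 96-well plates. TGI marks complete inhibition of growth.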

How the values were obtained:
Assay in all cases: NCI anticancer screen, dose series, 48 h
HCT-15 colon = test system: HCT-15 colon
RXF 393 renal = test system: RXF 393 renal
SK-OV-3 ovarian = test system: SK-OV-3 ovarian
OVCAR-4 ovarian = test system: OVCAR-4 ovarian
K-562 leukemia = test system: K-562 leukemia
MDA-MB-435 = test system: MDA-MB-435
CAKI-1 renal = test system: CAKI-1 renal
IGROV1 ovarian = test system: IGROV1 ovarian
T-47D breast = test system: T-47D breast
M14 melanoma = test system: M14 melanoma
EKVX NSCLC = test system: EKVX NSCLC
UACC-257 melanoma = test system: UACC-257 melanoma
MALME-3M melanoma = test system: MALME-3M melanoma
SNB-19 CNS = test system: SNB-19 CNS
HS 578T breast = test system: HS 578T breast

SMILES	TGI (HCT-15 colon) [µM]	TGI (RXF 393 renal) [µM]	TGI (SK-OV-3 ovarian) [µM]	TGI (OVCAR-4 ovarian) [µM]	TGI (K-562 leukemia) [µM]	TGI (MDA-MB-435) [µM]	TGI (CAKI-1 renal) [µM]	TGI (IGROV1 ovarian) [µM]	TGI (T-47D breast) [µM]	TGI (M14 melanoma) [µM]	TGI (EKVX NSCLC) [µM]	TGI (UACC-257 melanoma) [µM]	TGI (MALME-3M melanoma) [µM]	TGI (SNB-19 CNS) [µM]	TGI (HS 578T breast) [µM]
N#Cc1nc(COCCOCc2ccc(F)cc2)oc1N	> 100	> 100	> 100	> 100	> 100	> 100	> 100	> 100	> 100	> 100	> 100	> 100			
Cc1ccc(S(=O)(=O)c2c(N)n(CCN(C)C)c3nc4ccccc4nc23)cc1	> 100		> 100	> 100	> 100			> 100		> 100	> 100	> 100	> 100	> 100	
N#CCCN(CCN(CCC#N)C(=O)Nc1ccccc1)C(=O)Nc1ccccc1	> 100	75.3	> 100		> 100			> 100	> 100	> 100	> 100	> 100	> 100	> 100	> 100
CC1(C)O[C@@H](CBr)C[C@H](C[C@H]2C[C@@H](O)C[C@@H](CCOCc3ccccc3)O2)O1	57.1		33.7	41.7	> 100	55.6	51.3	42.6	38.3	50.2	33	37.8	35.1	61.8	47.7
Cc1ccccc1N=NC(C(=O)c1ccccc1)C(=O)c1ccccc1	80.8		88.4	85.3	> 100		96.6	> 100		39.1	88.3	> 100	> 100	85.5	
Cc1cc(Cl)ccc1C1OC(=O)c2c1ccc1ccccc21 (stereo not drawn)	> 100		> 100	> 100	> 100		> 100	> 100		> 100	> 100	> 100	> 100	> 100	
CC#CC(O)(C(=O)OC1CC2CCC(C1)N2C)C1CCCC1 (stereo not drawn)	> 100	> 100	> 100	> 100	> 100	> 100	> 100	> 100	> 100	> 100	> 100	> 100		> 100	> 100
COc1ccc(N=[N+]([O-])c2ccc(OC)cc2)cc1	> 100	> 100	> 100	> 100	> 100	> 100	> 100	> 100		> 100	> 100	> 100	> 100	> 100	> 100
Cc1cc(N(CCC#N)CCC#N)ccc1C=Nc1ccc(C(=O)NN2C(=O)/C(=C/c3ccc(N(CCC#N)CCC#N)cc3)N=C2c2cc([N+](=O)[O-])ccc2Cl)cc1	> 100	> 100	> 100	> 100	> 100		> 100	> 100		> 100	> 100	> 100	> 100	> 100	
CC[C@@H]1/C=C/C=C/C[C@H](C)[C@@H](O)[C@](C)(O)C(=O)[C@H](C)[C@@H](O)[C@H](C)C(=O)[C@H](C)[C@@H](O)[C@H](C)/C=C/C(=O)O[C@H]2[C@@H](C)[C@@H](CC1)O[C@@]1(CC[C@@H](C)[C@@H](CC(C)O)O1)[C@@H]2C (stereo partly drawn)	11.3	4.06	14.5	9.33	> 38.2	6.89	12.7	5.96		6.52	10.8	3.09	15.6	19.8	> 25.1
CC(CCCOC(c1ccccc1)(c1ccccc1)c1ccccc1)OC(=O)Nc1ccccc1 (stereo not drawn)	27.9	26.5	27.2	25	32.4		26.8	30		27.2		28.8	29.6		
COc1ccc(CCc2nccn2C)cc1OC	> 100		> 100	> 100	> 100	> 100	> 100	> 100		> 100	> 100	> 100	> 100	> 100	> 100
COc1cc(C2C(Cl)C(=O)N2NC(=O)c2ccc(NC(C)=O)cc2OC)ccc1O (stereo not drawn)	40.6	47.4	> 100	> 100	55.2	> 100	94	79.7	52.2	33.9	29.2		53.6	47.4	
CC(C)(C)S(=O)OC12CC3CC(CC(C3)C1)C2 (stereo not drawn)	> 100	> 100		> 100				> 100		> 100	> 100		> 100	> 100	
CC(=O)c1sc(=N)n(-c2c(C)cccc2C)c1C	> 100	> 100	> 100	> 100	> 100	> 100		> 100	> 100	> 100	> 100		> 100	> 100	> 100
O=C(CSC1=NNC2(C(=O)N1)c1ccccc1-c1ccccc12)NC(=S)Nc1ccccc1	> 10	> 10	> 10	> 10	> 10	> 10	> 10	> 10	> 10	> 10	> 10	> 10	> 10	> 10	
CC(=O)C1=CCC2c3[nH]c4ccccc4c3CCN2C1 (stereo not drawn)	> 100	> 100	75.6	> 100	91.3			> 100		> 100	> 100	> 100	> 100	> 100	
CC(=O)OCC(Br)C1(C)CCC(C(C)(C)Br)O1 (stereo not drawn)		> 100	> 100	72	> 100	> 100	> 100	> 100		> 100	> 100	45.2	> 100	> 100	> 100

SMILES	TGI (HCT-15 colon) [µM]	TGI (RXF 393 renal) [µM]	TGI (SK-OV-3 ovarian) [µM]	TGI (OVCAR-4 ovarian) [µM]	TGI (K-562 leukemia) [µM]	TGI (MDA-MB-435) [µM]	TGI (CAKI-1 renal) [µM]	TGI (IGROV1 ovarian) [µM]	TGI (T-47D breast) [µM]	TGI (M14 melanoma) [µM]	TGI (EKVX NSCLC) [µM]	TGI (UACC-257 melanoma) [µM]	TGI (MALME-3M melanoma) [µM]	TGI (SNB-19 CNS) [µM]	TGI (HS 578T breast) [µM]
COc1ccc2c(c1)CCC(OS(=O)(=O)CC13CCC(CC1=O)C3(C)C)C2=O (stereo not drawn)	92			> 100	> 100		> 100			> 100	> 100	> 100	> 100	> 100	
CCCC[C@H]1CCN2C[C@@H](O)[C@@H](O)[C@H]2[C@@H]1O	> 100		> 100	> 100	> 100	> 100	> 100	> 100	> 100	> 100	> 100	> 100	> 100	> 100	> 100
Cc1ncc([N+](=O)[O-])n1CCNC(=O)Cn1c([N+](=O)[O-])cnc1C	> 100		> 100		> 100	> 100	> 100	> 100	> 100	> 100		> 100	> 100	> 100	> 100
c1ccc2cc3c(cc2c1)nc1ccccn13	> 100	> 100	> 100		> 100	> 100		> 100	> 100	> 100	> 100	> 100	> 100	> 100	> 100
C=CCN1CN(c2ccccc2)C2(CCN(CCCC3(c4ccc(F)cc4)OCCO3)CC2)C1=O	25.7	28.1	43.3		25.4		75.6	39.4	40.3	30.6	40.1	33.3	30.6	39.9	
O=C1NC2(CCN(CCCC3(c4ccc(F)cc4)OCCO3)CC2)Oc2ccccc21	> 100	> 100	> 100	> 100	> 100	> 100		> 100	> 100	> 100	> 100	> 100	> 100	> 100	
O=c1[nH]n(Cc2ccccc2Cl)c2ccccc12	> 100			> 100	> 100	> 100	> 100	> 100		> 100	> 100	> 100	> 100	> 100	> 100
CCOC(OC1=C(C#N)CCCC1)C(C)[Se]c1ccccc1 (stereo not drawn)	> 100	29.8	> 100	47.6	> 100		> 100	> 100		> 100	> 100	> 100	> 100	> 100	
Cc1cccc2c(=O)c3cccc([C@@H](C)C(=O)O)c3oc12	> 100		> 100	> 100	> 100	> 100	> 100	> 100	> 100	> 100	> 100	> 100		> 100	> 100
CC(=O)ON(C(C)=O)c1ccc(-c2nc3ccccc3s2)cc1C	> 100			> 100	> 100	> 100	> 100	> 100		> 100	> 100	> 100	> 100	> 100	> 100
CCC(=O)C(C(C)/C=C/CCSc1ccccc1)C(O)CCCCCC(=O)OC (stereo not drawn)	> 100	> 100	> 100	> 100	> 100	> 100	> 100	> 100		> 100	> 100	> 100	> 100	> 100	
COc1ccc(CCNC(=O)[C@H]2CCCC[C@@H]2CCO)cc1OC	> 100	> 100	> 100	> 100	> 100	> 100	> 100	> 100	> 100	> 100	> 100	> 100		> 100	> 100
N#Cc1sc2c(c1O)c(=O)n(-c1ccccc1)c(=S)n2-c1ccccc1	> 100	> 100		> 100	> 100	> 100		> 100	> 100	> 100		> 100	> 100	> 100	> 100
C[N+](C)=c1nc(N2CCc3ccccc3C2)ss1	> 100	> 100	> 100	> 100	> 100		> 100	> 100		> 100		> 100	> 100	> 100	
CCc1cc2c(oc3cc(C)ccc32)c(=O)n1C	> 10	> 10	> 10	> 10	> 10	> 10		> 10	> 10	> 10	> 10	> 10	> 10	> 10	> 10
NCc1cc(O)c(O)c(O)c1	> 100	> 100	> 100	> 100	> 100		> 100	> 100		> 100	> 100	> 100	> 100	> 100	
CN(C)Cc1cc(N=Nc2ccc(Cl)cc2)ccc1OC(=O)c1ccccc1	29.1	30.1		28.5	35.8	29.3		25.9			25.9	35.2	31	29.8	46.9
